Measurements published in patent US20230346717A1, “IDENTIFICATION AND USE OF COMPOUNDS IN THE TREATMENT OR PREVENTION OF SEVERE ACUTE RESPIRATORY SYNDROME CORONAVIRUS 2” (priority 2020, published 2023).
Structures can show the parent of a compound that is named as a salt. Where two headings read alike, the source gives them in different places.

Legend:
Format in all cases: cell-based, human
[1] = system: CTSL; conditions: ARPE-19/HPV-16 cells, 10 μM drug, 24 hours
Source text: Each drug group profile was created using a novel Weighted Influence Model, Rank of Ranks (WIMRR) method which underscores the rank of each probe set across the entire gene expression profile rather than the specific change in expression level. WIMRR takes the average rank of each probe set across all of the members of the group and then re-ranks the probe sets from smallest average rank to largest average rank. A gene-set enrichment metric based on the Kolmogorov-Smirnov (KS) statistic.
Applicant analyzed expression profile of CTSL across all 466 drugs tested. In order to find positive hits and selected only those results that caused decrease of CTSL expression by at least 33% (1.5-fold down).

[2] = system: N-acetyl-6-sulfatase; test: Gene expression assay, lysosome gene N-acetyl-6-sulfatase; conditions: probe 212334_at; ARPE-19/HPV-16, 10 μM, 24 h
Source text: (§1) A drug screen was used to test agents having the potential to treat or prevent SARS-CoV-2 infection. The retinal pigment epithelia cell line, ARPE-19/HPV-16, was chosen to establish a database of drug profiles because of its non-cancerous, human origin, with a normal karyotype. ARPE-19/HPV-16 can be easily grown as monolayer in 96-well plates and expresses a variety of well known, neuronal, cell surface receptors that include the dopamine receptor D2, the serotonin receptors 1A, 2A, and 2C, the muscarinic receptor M3, and the histamine receptor H1.
(§2) Cell lines were propagated according to supplier's specifications (ATCC Manassas, VA). Compounds were obtained from Sigma (St. Louis, MO) or Vanda Pharmaceuticals (Washington, DC). Cells were aliquoted on 96-well plates (˜2×10^5 cells/well) and incubated for 24 hours prior to providing fresh media with a drug, or the drug vehicle (water, dimethyl sulfoxide, ethanol, methanol, or phosphate-buffered saline solution). Drugs were diluted 1000-fold in buffered Advanced D-MEM/F-12 culture medium (Invitrogen, Carlsbad, CA) containing nonessential amino acids and 110 mg/L sodium pyruvate. […]
(§3) Cells were harvested 24 hours after treatment and RNA was extracted using the RNeasy 96 protocol (Qiagen, Valencia, CA). […] A total of 708 microarrays were analyzed including 74 for 18 antipsychotics, 499 for 448 other compounds, and 135 for vehicle controls. […]

[3] = system: LGMN; test: Gene expression assay, lysosome gene LGMN; conditions: probe 201212_at; ARPE-19/HPV-16, 10 μM, 24 h
Source text: as §1, §2, §3

[4] = system: CTSK; test: Gene expression assay, lysosome gene CTSK; conditions: probe 202450_s_at; ARPE-19/HPV-16, 10 μM, 24 h
Source text: as §1, §2, §3

[5] = system: GALC; test: Gene expression assay, lysosome gene GALC; conditions: probe 204417_at; ARPE-19/HPV-16, 10 μM, 24 h
Source text: as §1, §2, §3

[6] = system: BCL10; test: Gene expression assay, lysosome gene BCL10; conditions: probe 205263_at; ARPE-19/HPV-16, 10 μM, 24 h
Source text: as §1, §2, §3

[7] = system: AGA; conditions: ARPE-19/HPV-16, 10 μM, 24 h
[8] = system: steroid sulfatase (microsomal); test: Gene expression assay, lysosome gene steroid sulfatase (microsomal); conditions: probe 203767_s_at; ARPE-19/HPV-16, 10 μM, 24 h
Source text: as §1, §2, §3

[9] = system: SCARB2; test: Gene expression assay, lysosome gene SCARB2; conditions: probe 201647_s_at; ARPE-19/HPV-16, 10 μM, 24 h
Source text: as §1, §2, §3

[10] = system: LAMP1; test: Gene expression assay, lysosome gene LAMP1; conditions: probe 201551_s_at; ARPE-19/HPV-16, 10 μM, 24 h
Source text: as §1, §2, §3

[11] = system: CTSB; test: Gene expression assay, lysosome gene CTSB; conditions: probe 213274_s_at; ARPE-19/HPV-16, 10 μM, 24 h
Source text: as §1, §2, §3

[12] = system: CD164; test: Gene expression assay, lysosome gene CD164; conditions: probe 208654_s_at; ARPE-19/HPV-16, 10 μM, 24 h
Source text: as §1, §2, §3

[13] = system: ceroid-lipofuscinosis; test: Gene expression assay, lysosome gene ceroid-lipofuscinosis; conditions: ARPE-19/HPV-16, 10 μM, 24 h
Source text: as §1
Cell lines were propagated according to supplier's specifications (ATCC Manassas, VA). Compounds were obtained from Sigma (St. Louis, MO) or Vanda Pharmaceuticals (Washington, DC). Cells were aliquoted on 96-well plates (˜2×10^5 cells/well) and incubated for 24 hours prior to providing fresh media with a drug, or the drug vehicle (water, dimethyl sulfoxide, ethanol, methanol, or phosphate-buffered saline solution). Drugs were diluted 1000-fold in buffered Advanced D-MEM/F-12 culture medium (Invitrogen, Carlsbad, CA) containing nonessential amino acids and 110 mg/L sodium pyruvate. In these conditions, no significant changes of pH were expected, which was confirmed by the monitoring of the pH indicator present in the medium.
A final 10 μM drug concentration was chosen because it is believed to fit in the range of physiological relevance. Microscopic inspection of each well was conducted at the end of the treatment to discard any samples where cells had morphological changes consistent with apoptosis. It was also verified that the drug had not precipitated in the culture medium.
Cells were harvested 24 hours after treatment and RNA was extracted using the RNeasy 96 protocol (Qiagen, Valencia, CA). Gene expression for 22,238 probe sets of 12,490 genes was generated with U133A2.0 microarrays following the manufacturer's instructions (Affymetrix, Santa Clara, CA). Drugs were profiled in duplicate or triplicate, with multiple vehicle controls on each plate. A total of 708 microarrays were analyzed including 74 for 18 antipsychotics, 499 for 448 other compounds, and 135 for vehicle controls.
The raw scan data were first converted to average difference values using MAS 5.0 (Affymetrix). The average difference values of both treatment and control data were set to a minimum threshold of 50 if below 50. For each treatment instance, all probe sets were then ranked based on their amplitude, or level of expression relative to the vehicle control (or average of controls when more than one was used). Amplitude was defined as the ratio of expression (t−v)/[(t+v)/2] where t corresponds to treatment instance and v to vehicle instance. […]

[14] = system: PCYOX1; test: Gene expression assay, lysosome gene PCYOX1; conditions: probe 203803_at; ARPE-19/HPV-16, 10 μM, 24 h
Source text: as §1, §2, §3

[15] = system: PSAP; test: Gene expression assay, lysosome gene PSAP; conditions: probe 200866_s_at; ARPE-19/HPV-16, 10 μM, 24 h
Source text: as §1, §2, §3

[16] = system: GJA1; test: Gene expression assay, lysosome gene GJA1; conditions: probe 201667_at; ARPE-19/HPV-16, 10 μM, 24 h
Source text: as §1, §2, §3

## NC12CC3CC(CC(C3)C1)C2 [Amantadine Hydrochloride]
[1]
  log2(treated) CTSL: 9.62 log2
  log2 difference (CTSL, treated vs control): −0.70 log2
[2]
  avg_tx (log2) N-acetyl-6-sulfatase: 9.71 log2
  diff (log2) N-acetyl-6-sulfatase: −1.27 log2
[3]
  avg_tx (log2) LGMN: 8.33 log2
  diff (log2) LGMN: −1.35 log2
[4]
  avg_tx (log2) CTSK: 7.09 log2
  diff (log2) CTSK: −1.81 log2
[5]
  avg_tx (log2) GALC: 6.58 log2
  diff (log2) GALC: −2.06 log2
[6]
  avg_tx (log2) BCL10: 7.44 log2
  diff (log2) BCL10: −1.25 log2
[7]; probe 204332_s_at
  avg_tx (log2) AGA: 9.18 log2
  diff (log2) AGA: −1.39 log2
[7]; probe 204333_s_at
  avg_tx (log2) AGA: 6.57 log2
  diff (log2) AGA: −1.6 log2
[7]; probe 216064_s_at
  avg_tx (log2) AGA: 8.12 log2
  diff (log2) AGA: −1.38 log2
[8]
  avg_tx (log2) steroid sulfatase (microsomal): 5.55 log2
  diff (log2) steroid sulfatase (microsomal): −1.47 log2
[9]
  avg_tx (log2) SCARB2: 6.97 log2
  diff (log2) SCARB2: −1.63 log2
[10]
  avg_tx (log2) LAMP1: 7.87 log2
  diff (log2) LAMP1: −1.4 log2
[11]
  avg_tx (log2) CTSB: 7.75 log2
  diff (log2) CTSB: −1.48 log2
[12]
  avg_tx (log2) CD164: 8.7 log2
  diff (log2) CD164: −1.34 log2
[13]; probe 204085_s_at
  avg_tx (log2) ceroid-lipofuscinosis: 5.93 log2
  diff (log2) ceroid-lipofuscinosis: −1.74 log2
[13]; probe 214252_s_at
  avg_tx (log2) ceroid-lipofuscinosis: 6.13 log2
  diff (log2) ceroid-lipofuscinosis: −1.57 log2
[14]
  avg_tx (log2) PCYOX1: 7.15 log2
  diff (log2) PCYOX1: −1.57 log2
[15]
  avg_tx (log2) PSAP: 10.59 log2
  diff (log2) PSAP: −1.36 log2
[16]
  avg_tx (log2) GJA1: 11.23 log2
  diff (log2) GJA1: −1.76 log2
